Laboratory results published in ChEMBL document CHEMBL4196117, “PK/PD Disconnect Observed with a Reversible Endothelial Lipase Inhibitor” (ACS Med Chem Lett, 2018).
Active and inactive are the calls of the source. The rule behind the calls is not given here.

Experiments:
Endothelial lipase [1] = target: T1, Endothelial lipase (Homo sapiens, UniProt Q9Y5X9); test: Inhibition of endothelial lipase in human HT1080 cells using HDL as substrate pretreated for 10 mins followed by substrate addition and measured after 30 mins by LC/MS/MS analysis; assay type: cell-based
T1 sequence (Q9Y5X9 whole entry): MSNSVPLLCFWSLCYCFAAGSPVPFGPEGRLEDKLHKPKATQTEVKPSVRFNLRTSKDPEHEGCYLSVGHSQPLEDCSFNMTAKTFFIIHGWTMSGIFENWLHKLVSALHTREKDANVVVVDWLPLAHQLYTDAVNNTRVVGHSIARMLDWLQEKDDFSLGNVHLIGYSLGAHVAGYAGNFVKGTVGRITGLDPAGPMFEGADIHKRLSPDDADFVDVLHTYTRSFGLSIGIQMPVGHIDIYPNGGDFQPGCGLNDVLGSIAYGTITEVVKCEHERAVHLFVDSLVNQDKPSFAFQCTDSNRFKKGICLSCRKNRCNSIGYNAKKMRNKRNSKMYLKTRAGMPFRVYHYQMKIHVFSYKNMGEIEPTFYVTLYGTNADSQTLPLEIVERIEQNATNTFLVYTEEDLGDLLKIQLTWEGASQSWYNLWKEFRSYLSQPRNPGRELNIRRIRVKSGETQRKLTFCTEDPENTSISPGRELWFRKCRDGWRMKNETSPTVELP

Endothelial lipase [2] = target: T1, Endothelial lipase; test: Inhibition of endothelial lipase in human HT1080 cells using PED-A1 containing DMPG vesicles as substrate pretreated for 20 mins followed by substrate addition and measured every 20 secs for 10 mins by fluorescence assay; assay type: cell-based
[3] = target: T2, Endothelial lipase (Homo sapiens) (UniProt Q9Y5X9); test: Ratio of IC50 for endothelial lipase in human HT1080 cells using HDL as substrate to IC50 for endothelial lipase in human HT1080 cells using PED-A1 containing DMPG vesicles as substrate; assay type: cell-based
T2 sequence (whole entry): T1 sequence (Q9Y5X9 whole entry)

Homo sapiens [4] = organism: Homo sapiens; test: Selectivity ratio of IC50 for recombinant human LPL expressed in African green monkey COS7 cells to IC50 for endothelial lipase in human HT1080 cells using PED-A1 containing DMPG vesicles as substrate; assay type: cell-based
[5] = target: T3, Endothelial lipase (Mus musculus) (UniProt Q9WVG5); test: Competitive inhibition of recombinant mouse endothelial lipase expressed in HEK293F cells using varying levels of HDL as substrate pretreated for 10 mins followed by substrate addition and measured after 30 mins by LC/MS/MS analysis
T3 sequence (whole entry): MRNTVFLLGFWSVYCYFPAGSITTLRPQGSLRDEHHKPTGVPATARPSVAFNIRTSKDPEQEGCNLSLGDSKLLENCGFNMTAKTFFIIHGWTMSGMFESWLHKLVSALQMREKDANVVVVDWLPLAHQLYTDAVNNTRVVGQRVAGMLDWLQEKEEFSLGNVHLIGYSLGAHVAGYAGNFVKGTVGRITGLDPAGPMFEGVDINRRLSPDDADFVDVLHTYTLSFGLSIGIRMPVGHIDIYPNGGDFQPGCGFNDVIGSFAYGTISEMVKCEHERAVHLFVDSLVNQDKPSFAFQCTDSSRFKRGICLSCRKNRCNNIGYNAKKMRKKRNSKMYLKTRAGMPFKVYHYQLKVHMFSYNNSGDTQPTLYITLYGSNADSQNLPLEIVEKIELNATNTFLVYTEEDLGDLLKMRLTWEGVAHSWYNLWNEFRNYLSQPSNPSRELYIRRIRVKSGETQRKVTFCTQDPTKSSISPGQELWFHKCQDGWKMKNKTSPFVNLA

[6] = target: T2, Endothelial lipase (Homo sapiens); test: Competitive inhibition of endothelial lipase in human HT1080 cells using varying level of HDL as substrate pretreated for 10 mins followed by substrate addition and measured after 30 mins by LC/MS/MS analysis; assay type: cell-based
Mus musculus = test: Effect on plasma HDL-C level in C57BL/6J mouse at 10 to 50 mg/kg, po qd for 5 days measured at 1 day for 5 days; assay type: functional, organism-based
Homo sapiens [7] = organism: Homo sapiens; test: Selectivity ratio of IC50 for recombinant human PL expressed in HEK293F cells to IC50 for endothelial lipase in human HT1080 cells using PED-A1 containing DMPG vesicles as substrate; assay type: cell-based
Homo sapiens [8] = organism: Homo sapiens; test: Selectivity ratio of IC50 for recombinant human HL expressed in African green monkey COS7 cells using HDL as substrate to IC50 for endothelial lipase in human HT1080 cells using HDL as substrate; assay type: cell-based
Homo sapiens [9] = organism: Homo sapiens; test: Selectivity ratio of IC50 for MAGL (unknown origin) to IC50 for endothelial lipase in human HT1080 cells using PED-A1 containing DMPG vesicles as substrate; assay type: cell-based
[10] = Total AUC in CD1 mouse at 1 mg/kg, po administered as bolus dose; assay type: ADME, organism-based; parameters: dose 1 mg/kg, route oral, time AUCmax; conditions: in vivo
[11] = Cmax in CD1 mouse at 1 mg/kg, iv administered as bolus dose; assay type: ADME, organism-based; parameters: dose 1 mg/kg, route intravenous; conditions: in vivo
[12] = Dissociation constant, pKa of the compound; assay type: physicochemical
[13] = Oral bioavailability in CD1 mouse at 1 mg/kg administered as bolus dose; assay type: ADME, organism-based; conditions: in vivo
Lipoprotein lipase = target: T4, Lipoprotein lipase (Homo sapiens, UniProt P06858); test: Inhibition of recombinant human LPL expressed in African green monkey COS7 cells using DGGR/DMPG vesicles as substrate pretreated for 10 mins followed by substrate addition and measured for 5 mins
T4 sequence (P06858 whole entry): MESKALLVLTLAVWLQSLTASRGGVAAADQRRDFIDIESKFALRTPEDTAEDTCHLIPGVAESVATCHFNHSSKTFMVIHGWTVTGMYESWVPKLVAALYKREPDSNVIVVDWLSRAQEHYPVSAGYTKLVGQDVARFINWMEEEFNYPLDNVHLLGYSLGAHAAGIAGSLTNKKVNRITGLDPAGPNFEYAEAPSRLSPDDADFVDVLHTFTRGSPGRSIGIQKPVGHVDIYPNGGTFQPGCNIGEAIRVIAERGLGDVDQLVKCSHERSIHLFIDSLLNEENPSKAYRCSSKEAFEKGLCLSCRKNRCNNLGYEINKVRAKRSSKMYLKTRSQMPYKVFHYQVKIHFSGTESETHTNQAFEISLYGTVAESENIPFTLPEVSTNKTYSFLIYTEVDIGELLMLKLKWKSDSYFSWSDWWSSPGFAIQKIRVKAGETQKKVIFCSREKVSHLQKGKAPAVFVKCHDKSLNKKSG

[14] = Cmax in CD1 mouse at 1 mg/kg, po administered as bolus dose; assay type: ADME, organism-based; parameters: dose 1 mg/kg, route oral; conditions: in vivo
[15] = target: T5, Hepatic triacylglycerol lipase (Homo sapiens, UniProt P11150); test: Inhibition of recombinant human HL expressed in African green monkey COS7 cells using HDL as substrate pretreated for 10 mins followed by substrate addition and measured after 30 mins by LC/MS/MS analysis
T5 sequence (P11150 whole entry): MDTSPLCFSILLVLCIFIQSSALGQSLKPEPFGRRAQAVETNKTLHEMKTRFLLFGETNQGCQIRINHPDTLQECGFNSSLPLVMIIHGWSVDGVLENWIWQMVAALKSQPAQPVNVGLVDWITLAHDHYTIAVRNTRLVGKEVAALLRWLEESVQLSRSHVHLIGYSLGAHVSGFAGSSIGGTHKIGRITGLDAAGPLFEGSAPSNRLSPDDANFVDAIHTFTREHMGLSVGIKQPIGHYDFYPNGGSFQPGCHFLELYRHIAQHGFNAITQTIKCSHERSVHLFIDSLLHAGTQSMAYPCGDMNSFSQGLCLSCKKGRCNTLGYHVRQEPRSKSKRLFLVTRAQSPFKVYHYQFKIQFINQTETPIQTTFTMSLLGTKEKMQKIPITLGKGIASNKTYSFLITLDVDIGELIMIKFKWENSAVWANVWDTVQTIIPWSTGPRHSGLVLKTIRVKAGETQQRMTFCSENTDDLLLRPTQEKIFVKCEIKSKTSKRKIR

[16] = Total AUC in CD1 mouse at 1 mg/kg, iv administered as bolus dose; assay type: ADME, organism-based; parameters: dose 1 mg/kg, time AUCmax, route intravenous; conditions: in vivo
[17] = Half life in CD1 mouse at 1 mg/kg, iv administered as bolus dose; assay type: ADME, organism-based; conditions: in vivo
[18] = Clearance in CD1 mouse at 1 mg/kg, iv administered as bolus dose; assay type: ADME, organism-based; conditions: in vivo
[19] = Half life in CD1 mouse at 1 mg/kg, po administered as bolus dose; assay type: ADME, organism-based; conditions: in vivo
[20] = target: T2, Endothelial lipase (Homo sapiens); test: Reversible inhibition of endothelial lipase in human HT1080 cells at 2 uM using PED-A1 containing DMPG vesicles as substrate pretreated for 20 mins followed by compound washout prior to substrate addition and measured every 20 secs for 10 mins by fluorescence assay; assay type: cell-based

| SMILES | IC50 (Endothelial lipase [1]) [nM] | IC50 (Endothelial lipase [2]) [nM] | Ratio IC50 [3] | further results |
| --- | --- | --- | --- | --- |
| CCN1CC(C(=O)NC(C)CCc2ccc(Cl)c(Cl)c2)=C(O)C1=O (stereo in doubt; 7d) | 835 | 910 | – | – |
| CN1C(=O)C(O)=C(C(=O)NCCCc2ccc(Cl)c(Cl)c2)C1c1ccccc1Cl (centres undefined) | 5750 | 59 | 60 to 100 | – |
| CN1CC(C(=O)NCCCc2ccccc2)=C(O)C1=O | – | 5830 | – | – |
| CCN1CC(C(=O)NC(C)CCc2ccc(Cl)c(Cl)c2)=C(O)C1=O (racemic) | 264 | 44 | – | – |
| CCN1CC(C(=O)NC(C)CCc2ccc(Cl)c(Cl)c2)=C(O)C1=O (stereo in doubt; 7c) | – | – | – | Ratio IC50 (Homo sapiens [4]): > 250; inhibition [5]: inactive; inhibition [6]: inactive; Activity (Mus musculus): inactive; Ratio IC50 (Homo sapiens [7]): > 250; Ratio IC50 (Homo sapiens [8]): 12; Ratio IC50 (Homo sapiens [9]): > 250 |
| CN1C(=O)C(O)=C(C(=O)NCCCc2ccc(Cl)c(Cl)c2)C1CC(C)(C)C (centres undefined) | 1770 | 29 | 60 to 100 | – |
| CCN1CC(C(=O)NCCCc2ccc(Cl)c(Cl)c2)=C(NCCc2ccncc2)C1=O | 5990 | 59 | > 50 | – |
| Cn1ccc(C(=O)NCCCc2ccc(Cl)c(Cl)c2)c(O)c1=O | – | 61 | – | AUC [10]: 16 µM·h; Cmax [11]: 25 µM; pKa [12]: 6.5; bioavailability [13]: 82%; IC50 (Lipoprotein lipase): > 90000 nM; Cmax [14]: 2 µM; inhibition [20]: Active; IC50 [15]: 16 nM; AUC [16]: 19 µM·h; half-life [17]: 4.9 h; clearance [18]: 2.5 mL/min/kg; half-life [19]: 2.9 h |

More lines, main results first:

| IC50 (Endothelial lipase [1]) [nM] | IC50 (Endothelial lipase [2]) [nM] | Ratio IC50 [3] | SMILES | further results |
| --- | --- | --- | --- | --- |
| 2440 | 19 | 11 to 150 | O=C(NCCCc1ccc(Cl)c(Cl)c1)C1=C(O)C(=O)N(CCCN2CCCC2=O)C1 | – |
| – | 190 | – | O=C(NCCCc1ccc(Cl)c(Cl)c1)C1=C(O)C(=O)N(CCN2CCOCC2)C1 | – |
| 4210 | 25 | > 50 | CCN1CC(C(=O)NCCCc2ccc(Cl)c(Cl)c2)=C(NCCCN2CCCCC2)C1=O | – |
| 3020 | < 10 | > 50 | CCN1CC(C(=O)NCCCc2ccc(Cl)c(Cl)c2)=C(NC)C1=O | – |
| 3520 | 30 | 11 to 150 | CCN1CC(C(=O)NCCCc2ccc(Cl)c(Cl)c2)=C(O)C1=O | – |
| – | – | 11 to 150 | O=C(NCCCc1ccc(Cl)c(Cl)c1)C1=C(O)C(=O)N(Cc2ccccc2)C1 | – |
| 1050 | 95 | 11 to 150 | CS(=O)(=O)NC(=O)CCN1CC(C(=O)NCCCc2ccc(Cl)c(Cl)c2)=C(O)C1=O | – |
| 945 | 19 | > 50 | CCN1CC(C(=O)NCCCc2ccc(Cl)c(Cl)c2)=C(NCCOC(C)C)C1=O | – |
| 1760 | 41 | 11 to 150 | CN1CC(C(=O)NCCCc2ccc(Cl)c(Cl)c2)=C(O)C1=O | AUC [10]: 18 µM·h; Cmax [11]: 32 µM; pKa [12]: 4.8; bioavailability [13]: 76%; IC50 (Lipoprotein lipase): > 37000 nM; Cmax [14]: 8.2 µM; IC50 [15]: 76 nM; AUC [16]: 24 µM·h; half-life [17]: 3.4 h; clearance [18]: 2.1 mL/min/kg; half-life [19]: 3.2 h |
| – | 296 | – | CN1CC(C(=O)NCCc2ccc(Cl)c(Cl)c2)=C(O)C1=O | – |
| 826 | – | 11 to 150 | O=C(NCCCc1ccc(Cl)c(Cl)c1)C1=C(O)C(=O)N(CCOc2ccccc2)C1 | – |
| 5290 | 88 | 60 to 100 | CN1C(=O)C(O)=C(C(=O)NCCCc2ccc(Cl)c(Cl)c2)C1C1CC1 (centres undefined) | – |
